Read-outs that look alike come from different tables or passages of the source.
Assays:
[1] = system: Candida albicans ATTC 90028; assay: Antifungal susceptibility testing, Candida albicans; assay type: cell-based
Method in brief: (§1)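 Modified NCCLS broth microdilution, samples serially diluted from 20 μg/mL top concentration, inocula per 0.5 McFarland (C. albicans in SDB or RPMI 1640; C. neoformans in SDB; A. fumigatus in YM broth or RPMI-1640 + 5% Alamar Blue). IC50 from percent growth versus concentration; MIC read visually as lowest concentration without detectable growth.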

MRSA = assay: Antibacterial susceptibility testing, MRSA; assay type: cell-based, methicillin resistant Staphylococcus aureus; settings: Staphylococcus aureus
Method in brief: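 MRSA, sourced from the American Type Culture Collection, was tested for susceptibility with a modified National Committee for Clinical Laboratory Standards method. DMSO sample solutions were serially diluted in saline and placed in duplicate in 96 well microplates. Broth-diluted bacterial suspensions, standardized to 0.5 McFarland, brought each well to 200 μL, with the highest test concentration at 20 μg/mL.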

[2] = system: Aspergillus fumigatus ATCC 90906; assay: Antifungal susceptibility testing, Aspergillus fumigatus; assay type: cell-based; settings: for IC50: ATCC90906, Aspergillus fumigatus, read-out: A fu IC50
Method in brief: as §1

[3] = system: Cryptococcus neoformans ATCC 90113; assay: Antifungal susceptibility testing, Cryptococcus neoformans; assay type: cell-based
Method in brief: as §1

Vero Cells = assay: Cytotoxicity, Vero cells; assay type: cell-based
[4] = ATTC90028, Table 2, read-out: Ca IC50
[5] = ATTC90028, Table 2, read-out: Ca MFC
[6] = ATTC90028, Table 2, read-out: Ca MIC
[7] = ATCC90113, Table 2, read-out: Cn IC50
[8] = ATCC90113, Table 2, read-out: Cn MFC
[9] = ATCC90113, Table 2, read-out: Cn MIC
[10] = ATTC90028, Table 1, read-out: Ca IC50
[11] = ATTC90028, Table 1, read-out: Ca MFC
[12] = ATTC90028, Table 1, read-out: Ca MIC
[13] = ATCC90113, Table 1, read-out: Cn IC50
[14] = ATCC90113, Table 1, read-out: Cn MFC
[15] = ATCC90113, Table 1, read-out: Cn MIC

| Structure (SMILES) | IC50 [1, 4] [µg/mL] | MIC [1, 6] [µg/mL] | IC50 (MRSA; Table 2, read-out: MRSA IC50) [µg/mL] | MIC (MRSA; Table 2, read-out: MRSA MIC) [µg/mL] | A fu MIC [2] [µg/mL] | IC50 ([2]; Table 2) [µg/mL] | IC50 [3, 7] [µg/mL] | melting point [°C] | IC50 [1, 10] [µg/mL] | MIC [1, 12] [µg/mL] | IC50 (MRSA; Table 1, read-out: MRS IC50) [µg/mL] | MIC (MRSA; Table 1, read-out: MRS MIC) [µg/mL] | IC50 ([2]; Table 1) [µg/mL] | IC50 [3, 13] [µg/mL] | MIC [3, 15] [µg/mL] | MFC [1, 5] [µg/mL] | MFC [1, 11] [µg/mL] | MFC (MRSA; Table 1, read-out: MRS MFC) [µg/mL] | MFC [3, 14] [µg/mL] | TC50 Vero Cells (Vero Cells; Table 1) | other results |
| --- | --- | --- | --- | --- | --- | --- | --- | --- | --- | --- | --- | --- | --- | --- | --- | --- | --- | --- | --- | --- | --- |
| Clc1ccc(Nc2cc3ccccc3[n+](CCCCCc3ccccc3)c2)cc1 [JRE-2-89-1] | 15 | 50 | 1.5 | 3.1 | 50 | 10 | 4 | 182 to 183 |  |  |  |  |  |  |  | > 20 |  |  |  |  | MFC [3, 8]: 13 µg/mL; MIC [3, 9]: 6.3 µg/mL; TC50 Vero Cells (Vero Cells; Table 2): >25 µg/mL |
| C[n+]1cccc(N(CCCCCC2CCCCC2)c2ccccc2)c1 [JRE-4-1-1] | 3.5 | 10 | 1.5 | 5 | 1.3 | 0.9 | 1.5 | 124 to 125 |  |  |  |  |  |  |  | > 20 |  |  |  |  | A fu MFC [2]: 1.3 µg/mL; MFC [3, 8]: 5 µg/mL; MIC [3, 9]: 2.5 µg/mL; TC50 Vero Cells (Vero Cells; Table 2): 8.3 µg/mL |
| C[n+]1cc2c(c3cc(C(F)(F)F)ccc3n2CCCCCC2CCCCC2)c2ccccc21.[I-] [JRE-4-17-1, 10-Trifluoromethyl-7-(5-cyclohexyl-pentyl)-5-methyl-7H-indolo[2,3-c]quinolin-5-ium iodide] |  |  |  |  | 10 |  |  | 231 to 233 |  |  |  |  |  |  |  |  |  |  |  |  | IC50 ([1]; ATTC90028, Table 3, read-out: Ca IC50): 3.5 µg/mL; MFC ([1]; ATTC90028, Table 3, read-out: Ca MFC): 10 µg/mL; MIC ([1]; ATTC90028, Table 3, read-out: Ca MIC): 5 µg/mL; IC50 (MRSA; Table 3, read-out: MRSA IC50): 1.5 µg/mL; MFC (MRSA; Table 3, read-out: MRSA MFC): 5 µg/mL; MIC (MRSA; Table 3, read-out: MRSA MIC): 2.5 µg/mL; A fu MFC [2]: 10 µg/mL; IC50 ([2]; Table 3): 3.5 µg/mL; IC50 ([3]; ATCC90113, Table 3, read-out: Cn IC50): 3 µg/mL; MFC ([3]; ATCC90113, Table 3, read-out: Cn MFC): 5 µg/mL; MIC ([3]; ATCC90113, Table 3, read-out: Cn MIC): 5 µg/mL; TC50 Vero Cells (Vero Cells; Table 3): >10 µg/mL |

More lines, main results first:

| IC50 [1, 4] [µg/mL] | MIC [1, 6] [µg/mL] | IC50 (MRSA; Table 2, read-out: MRSA IC50) [µg/mL] | MIC (MRSA; Table 2, read-out: MRSA MIC) [µg/mL] | A fu MIC [2] [µg/mL] | IC50 ([2]; Table 2) [µg/mL] | IC50 [3, 7] [µg/mL] | melting point [°C] | IC50 [1, 10] [µg/mL] | MIC [1, 12] [µg/mL] | IC50 (MRSA; Table 1, read-out: MRS IC50) [µg/mL] | MIC (MRSA; Table 1, read-out: MRS MIC) [µg/mL] | IC50 ([2]; Table 1) [µg/mL] | IC50 [3, 13] [µg/mL] | MIC [3, 15] [µg/mL] | Structure (SMILES) | MFC [1, 5] [µg/mL] | MFC [1, 11] [µg/mL] | MFC (MRSA; Table 1, read-out: MRS MFC) [µg/mL] | MFC [3, 14] [µg/mL] | TC50 Vero Cells (Vero Cells; Table 1) | other results |
| --- | --- | --- | --- | --- | --- | --- | --- | --- | --- | --- | --- | --- | --- | --- | --- | --- | --- | --- | --- | --- | --- |
|  |  |  |  | 20 |  |  | 175 to 176 | > 20 | > 20 | 0.95 | 5 | 9 | 0.6 | 2.5 | FC(F)(F)c1ccccc1Sc1cc2ccccc2[n+](CCCCC[n+]2cc(Sc3ccccc3C(F)(F)F)cc3ccccc32)c1 [XYZ-IV-45] |  | > 20 | > 20 | 20 | NC (NC = Not toxic at 10 μg/mL) |  |
|  |  |  |  | 10 |  |  | 154 to 156 | > 20 | > 20 | 2 | 5 | 5 | 4 | 10 | FC(F)(F)c1ccccc1Sc1cc2ccccc2[n+](CCCCC[n+]2c3ccccc3cc3[nH]c4ccccc4c32)c1 [XYZ-IV-52] |  | > 20 | > 20 | > 20 | NC (NC = Not toxic at 10 μg/mL) |  |
|  |  |  |  |  |  |  | 167 to 168 | 15 | > 20 | 0.8 | 2.5 | 7.5 | 0.95 | 2.5 | FC(F)(F)c1cccc(Sc2cc3ccccc3[n+](CCCCC[n+]3cc(Sc4cccc(C(F)(F)F)c4)cc4ccccc43)c2)c1 [XYZ-IV-55] |  | > 20 | 10 | 20 | NC (NC = Not toxic at 10 μg/mL) |  |

Reference: US8288410B2, “3-substituted quinolinium and 7H-indolo[2,3-c]quinolinium salts as new antiinfectives” (Florida Agricultural and Mechanical University, priority 2008, dated 2012)
